Assay results reported in US5336496A, “Inhibitor for delta 5-desaturase” (Suntory Limited, priority 1989, dated 1994).
Read-outs that look alike come from different tables or passages of the source.

What was measured:
[1] = target: T1, Δ^5 -desaturase (Rattus norvegicus, UniProt Q920R3); test: Inhibition of Δ5-desaturase in rat liver microsome (conversion of [2-14C]-dihomo-γ-linolenic acid to arachidonic acid); assay type: biochemical, rat (Wister male); settings: for inhibition at 30 µg/mL: read-out: Inhibition on Δ^5 -desaturase (%); for specific inhibition of Δ^5 -desaturase / inhibition of Δ^5 -desaturation reaction from dihomo-γ-linolenic acid to arachidonic acid: in words; for specific inhibition of Δ^5 -desaturase: figure legends, compared with Δ^6 -desaturase (and Δ^9 -desaturase for sesamin); for inhibition of Δ^5 -desaturation reaction from dihomo-γ-linolenic acid to arachidonic acid: 0.001 to 0.5 mg/ml, FIGS. 1, 2 and 3, rat liver microsome
T1 construct: from tissue; host or cells: liver microsomes of a male Wistar rat
T1 sequence (Q920R3 whole entry, stated change not applied): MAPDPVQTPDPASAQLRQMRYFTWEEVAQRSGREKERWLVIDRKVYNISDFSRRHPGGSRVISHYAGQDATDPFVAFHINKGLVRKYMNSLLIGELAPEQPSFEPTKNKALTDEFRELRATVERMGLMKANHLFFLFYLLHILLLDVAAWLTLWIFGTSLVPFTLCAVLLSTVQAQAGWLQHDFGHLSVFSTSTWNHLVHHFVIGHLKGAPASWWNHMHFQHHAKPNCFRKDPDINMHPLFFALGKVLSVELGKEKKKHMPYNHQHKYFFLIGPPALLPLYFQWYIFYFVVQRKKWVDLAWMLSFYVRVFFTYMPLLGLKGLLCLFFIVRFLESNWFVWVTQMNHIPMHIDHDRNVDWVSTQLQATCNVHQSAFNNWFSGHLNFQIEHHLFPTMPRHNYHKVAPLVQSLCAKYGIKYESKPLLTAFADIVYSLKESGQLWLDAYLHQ
Experimental: As a homogenization solution, a 50 mM phosphate buffer (pH 7.4) containing 0.15M KCl, 5 mM MgCl2.6H2 O, 1 mM EDTA, 0.25M saccharose and 1.5 mM glutathione was used. The liver of a Wister male rat was perfused with physiological saline and removed, and to the removed liver was added 4-fold by weight of the homogenization solution, and the whole was homogenized. The homogenate was centrifuged at 10,000×g for 20 minutes to obtain a supernatant, which was centrifuged at 100,000×g for one hour to obtain a pellet. The pellet was suspended in the homogenization solution to obtain a microsome solution containing 12.24 mg/ml protein. The above-mentioned procedures were carried out at 4° C.
To assay the Δ^5 -desaturase activity 100 μl of the rat liver microsome solution was added to 1 ml of 0.1M phosphate buffer (PH7.4) containing 0.25M saccharose, 0.15M KCl, 1.5 mM glutathione, 45 mM NaF, 0.5 mM nicotinamide, 5 mM MgCl2.6H20 O, 7.5 mM ATP, 0.4 mM CoA.Na2, 1.5 mM NADH, and 100 μM dihomo-γ-linolenic acid containing 0.1 μCi (1.7 nmoles) [2-^14 C]-dihomo-γ-linolenic acid per 1 ml, the mixture was incubated at 37° C for one hour, followed by an addition of 5 ml of ethanol to terminate the reaction. To the reaction mixture was added 1 ml of 4N KOH, and mixture was incubated at 60° C for 30 minutes for saponification. After the reaction, 3 ml of water, 100 μg of dihomo-γ-linolenic acid and 1 ml of 6N HCl were added thereon, and fatty acids in the reaction mixture were extracted twice with 5 ml of hexane. The extract was evaporated in a centrifuge evaporator and 1 ml of ethyl ether/methanol (9:1) was added to the residue, and the fatty acids were methylated with diazomethane. After allowing to stand at a room temperature for 30 minutes, the reaction mixture was evaporated in a centrifuge evaporator to remove the solvent, whereby methyl esters of the resulting fatty acids were obtained. The esters were separated on a 10% AgNO3 silica gel plate using petroleum ether/ethyl ether (1:1) as a developing solvent. Silica gel portions corresponding to the substrate dihomo-γ-linolenic acid and the product arachidonic acid respectively were peeled off, and to 5 ml of toluene-based scintillation fluid solution was added to the silica gel to measure the radioactivity by a scintillation counter. The radioactivity of the generated arachidonic acid was determined by subtracting a radioactivity at the onset of the reaction from a radioactivity after the reaction.
The enzyme inhibitory activities of sesamin, episesamin and sesamomolin were measured according to the above-mentioned procedure, except that the reaction mixture contained 0.001 to 0.5 mg/ml sesamin, episesamin or sesamolin. The radioactivity was measured as described above, and the percent inhibition was calculated.

[2] = target: T2, Δ^6 -desaturase (Rattus norvegicus, UniProt Q9Z122); test: Inhibition of Δ6-desaturase in rat liver microsome ([1-14C]-linoleic acid substrate); assay type: biochemical, rat (Wister male); settings: read-out: Inhibition on Δ^6 - (%)
T2 construct: The pellet was suspended in the homogenization solution to obtain a microsome solution; from tissue; host or cells: liver microsomes of a male Wistar rat
T2 sequence (Q9Z122 whole entry, stated change not applied): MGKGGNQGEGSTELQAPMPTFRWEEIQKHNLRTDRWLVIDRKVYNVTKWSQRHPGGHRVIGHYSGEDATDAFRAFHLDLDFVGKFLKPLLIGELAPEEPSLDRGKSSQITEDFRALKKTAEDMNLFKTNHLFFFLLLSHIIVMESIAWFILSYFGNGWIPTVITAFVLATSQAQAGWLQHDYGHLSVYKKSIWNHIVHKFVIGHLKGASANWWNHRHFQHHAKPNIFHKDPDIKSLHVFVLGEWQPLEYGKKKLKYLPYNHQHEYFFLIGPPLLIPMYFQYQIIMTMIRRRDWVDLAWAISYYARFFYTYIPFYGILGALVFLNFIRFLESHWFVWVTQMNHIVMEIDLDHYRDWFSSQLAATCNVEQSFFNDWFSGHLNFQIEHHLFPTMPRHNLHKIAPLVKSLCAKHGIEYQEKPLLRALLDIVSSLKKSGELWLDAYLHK

Row | inhibition at 30 µg/mL ([2]; 0.03 mg/ml, rat liver microsome) [%] | Structure (SMILES) | inhibition at 30 µg/mL [1] [%] | inhibition at 30 µg/mL [2] [%] | specific inhibition of Δ^5 -desaturase [1] | inhibition of Δ^5 -desaturation reaction from dihomo-γ-linolenic acid to arachidonic acid [1]
1 |  | CCCCOCCOCCOCc1cc2c(cc1CCC)OCO2 [Piperonyl butoxide] | 32.5 | 0 |  | 
2 | 36.1 | COc1cc(/C=C/C(=O)CC(=O)/C=C/c2ccc(O)c(OC)c2)ccc1O [Curcumin] |  |  |  | 
3 |  | c1cc2c(cc1[C@H]1OC[C@H]3[C@@H]1CO[C@@H]3c1ccc3c(c1)OCO3)OCO2 [Sesamin] | 39.2 | 0 | specifically inhibits | inhibited
4 |  | c1cc2c(cc1O[C@H]1OC[C@H]3[C@@H]1CO[C@@H]3c1ccc3c(c1)OCO3)OCO2 [Sesamolin] |  |  | specifically inhibits | inhibited
